From PMC9562342, “Structural and functional analysis of EntV reveals a 12 amino acid fragment protective against fungal infections” (Nature Communications, 2022)
“And” between values parts separate entries of the source, which are not always exact repeats. Equal entries are not always repeated. “Also recorded” adds a separate entry of the source. Where two headings read alike, the source gives them in different places. No end group written: not given here.

Legend:
C. albicans AzR = assay type: in vivo, Candida albicans; details: C. albicans AzR infected C. elegans, peptides 1 nM, fluconazole 4 ug/ml, Fig 4D
C. albicans AzS = experiment: C. elegans killing assay, C. albicans paired clinical isolate before fluconazole resistance (Az^S); assay type: in vivo, Candida albicans
C. albicans [1] = experiment: C. elegans killing assay, C. albicans infection; details: 1 nM peptide; for Median survival: C. albicans infected C. elegans
Description: C. elegans glp-4(bn2); sek-1(km-4)[48] nematodes were propagated and maintained on E. coli strain OP50[50] that was seeded onto nematode growth medium (NGM) agar using standard techniques (Hope, 1999). To synchronize the animals, L1 stage worms on non-starved plates were washed off, filtered through a 10 μm filter (pluriSelect, pluriStrainer 10 μm), harvested by centrifugation at 750 xg for 30 seconds, transferred to OP50 seeded plates, and grown to the L4 stage. To prepare the infection plates, Fungal strains were grown in YPD broth for 24 h at 37 °C with agitation. 500 μl of the culture was plated onto BHI solid medium containing gentamycin (10 μg/ml) and grown for 24 h at 37 °C. The synchronized, L4 C. elegans were washed off the OP50 plates in 2 ml sterile M9 buffer and washed once, centrifuging at 750 xg for 30 seconds to collect animals. Animals were infected by placing them on the fungal lawn for 4 h at 25 °C. Following this exposure, they were washed off the plate and washed four times with 2 ml of sterile M9. The nematodes were then pipetted (~30 per well with two wells per condition for a total of ~60 worms assayed) into six-well plates with 2 ml of liquid medium (20% BHI broth and 80% M9) containing the indicated concentrations of test compounds. Plates were incubated at 25 °C, and worm death was scored daily. Kaplan–Meier survival curves were generated and analyzed as described in the quantification and statistical analysis section.

[2] = Solubility of peptides (biophysical characteristics); assay type: physicochemical
Text: Supplement 41467_2022_33613_MOESM1_ESM.docx, table 2: Supplementary Table 2. Biophysical characteristics of peptides. | column: Solubility

[3] = Peptide serum stability assay; assay type: in vitro ADME, human
Description: One mL of RPMI supplemented with 10% (v/v) of human serum (type AB) were aliquoted and temperature-equilibrated at 37 °C for 15 min before adding a concentrated stock peptide solution resulting in a final peptide concentration of 100 µM. For each time point, 100 µL of the reaction solution was removed and added to 200 µL 96% ethanol for precipitation of serum proteins. The sample was cooled (4 °C) for 15 min and then spun at 18,000 g for 2 min to pellet the precipitated serum proteins. The reaction supernatant was analyzed using HPLC with absorbance detected at 280 nm. The peptide peak was detected first without serum treatment to assess the area under the curve for the peptide of interest. At each time point the area under the curve was calculated by HPLC and then divided by the untreated peptide area under the curve to determine the percent remaining.

C. albicans [4] = experiment: Intravenous infection model (disseminated candidiasis); assay type: in vivo, mouse; details: C. albicans pre-incubated with 100 nM peptide for two hours, IV injection, day 22
C. albicans [5] = experiment: C. albicans CFUs before and after two-hour pre-incubation with peptide; details: 100 nM, two-hour incubation in PBS
Description: To increase the chances of observing an effect, we pre-incubated C. albicans with 100 nM of EntV or the 12mer for two hours prior to intravenous (IV) injection of 1 ×10^5 CFU.
The disseminated candidiasis model[59],[60] was performed by growing C. albicans SC5314 overnight in YPD at 30 °C, then diluting 1/100 and growing in a second overnight. The late-log phase culture was collected by centrifugation at 16,000 xg for 30 s, washed in PBS, and diluted to 5 × 10^6 cells/ml in PBS containing vehicle (0.01% DMSO) or 100 nM EntV or the 12mer peptide and incubated for 2 h at room temperature. Female ICR mice 6 wks, 18–20 g, 10/experimental group were inoculated via the lateral tail vein with 0.1 ml. Animals were monitored at least twice daily for 21 days for signs of moribundity.

RBCs = experiment: Hemolysis assay; assay type: cell-based, human; details: for fractional hemolysis (Toxicity): Extended Fig 6A
Description: De-identified and pooled RBCs were purchased from Rockland Immunochemicals, Inc. RBCs were prepared at 6 × 10^7 cells/mL in PBS. To 25 μL of peptide diluted appropriately to result in a final concentration of 1 nM and 1 µM, 125 μL of RBC suspension was added. The plates were gently rocked for 1 h at room temperature. The cells were then removed from suspension by centrifugation at 1000 xg for 5 min. From the experimental plate, 100 μL of the supernatant was carefully withdrawn from each well and added to a new 96-well plate. The absorbance of the solutions in each well was measured at 410 nm and each well was compared to a no-treatment control and a 100% lysis control (1% SDS).

C. albicans [6] = experiment: Mouse OPC model, epithelial (hyphal) invasion by histology; assay type: in vivo
C. albicans [7] = experiment: Mouse OPC model, fungal burden in tongue by qPCR; assay type: in vivo
[8] = system: C. neoformans strain 40-71; experiment: C. elegans killing assay, C. neoformans infection; assay type: in vivo, Cryptococcus neoformans; details: 1 nM peptide
C. albicans [9] = experiment: Rat venous catheter model; assay type: in vivo; details: rat jugular vein catheter, 20 nM, 24 h, n of three
Description: To quantitate fungal burden after 24 h, the catheter was removed, and 1 cm of the tip placed in a one milliliter of sterile 0.9% NaCl followed by vortexing. A 1:10 serial dilution of this wash fluid was plated on SDA and colonies counted after 24 h of growth at 35 °C. […] Serial ethanol washes and critical point drying were used to dry the segments before they were mounted, and palladium-gold coated.

C. albicans [10] = experiment: C. albicans adhesion assay (polystyrene plates, crystal violet); assay type: cell-based, Candida albicans; details: for Adjusted avg / Avg Percent: Fig 3B, 10 nM, mean of 6 technical replicates; for Adjusted avg: background subtracted; for Avg Percent: relative adherence vs DMSO
Description: Similar to the methodology in[51], C. albicans strains were grown in YPD broth for 18 h at 30 °C with agitation and then subcultured for 4 h in the same conditions. […] The cell suspension was incubated for 1 h at 30 °C with agitation. Then 100 µl of the cell suspension was added to wells of a 96 well tissue culture treated polystyrene plate (Falcon) in addition to 100 µl of artificial saliva media[14],[52] containing the indicated concentrations of test compounds. The plate was then incubated at 37 °C for 90 min.
The adhered cell layer was then stained for 20 min with 40 µl of 0.08% crystal violet solution (diluted, Sigma). The crystal violet stain was removed, and the wells were then washed three times with sterile water. Adhered cells were then destained with 200 µl of 200 proof ethanol for 20 min, and 100 µl of the ethanol solution was transferred to a new well for analysis. The optical density at 595 nm (OD595) was measured using a Synergy H1 plate reader (BioTek) with Gen5 version 3.08 software (BioTek).

[11] = 10 nM and 1 nM in drinking water

OC(Cn1cncn1)(Cn1cncn1)c1ccc(F)cc1F [Flu, fluconazole, reference compound]
Median survival (C. albicans AzR; trial 1): 8 days | Median survival (C. albicans AzR; trial 2): 6 days | Median survival (C. albicans AzS; in vivo): 11 days and 10 days

TNAAAAQQGGIICLLVVWLS [α7-disrupted]
Median survival (C. albicans [1]; Fig 2C, trial 1): 6 days | Median survival (C. albicans [1]; Fig 2C, trial 2): 6 days | Solubility [2]: 10 µM +

TNVGALWICGLAVIQAAQLS [α7-random]
Median survival (C. albicans [1]; Fig 2C, trial 1): 7 days | Median survival (C. albicans [1]; Fig 2C, trial 2): 7 days | Solubility [2]: 10 µM +

VAGQLALWAVQC [12aa]
Median survival (C. albicans AzR; trial 1): 10 days | Median survival (C. albicans AzR; trial 2): 11 days | stability in the presence of 10% human serum ([3]; 10% human serum, 0 Hrs, fraction relative to 0 Hrs, mean (SD) of n = 3): 1.0 (0.0) | remaining at 2 h ([3]; 10% human serum, 2 Hrs, fraction relative to 0 Hrs, mean (SD) of n = 3, read-out: stability in the presence of 10% human serum): 44.3% | remaining at 4 h ([3]; 10% human serum, 4 Hrs, fraction relative to 0 Hrs, mean (SD) of n = 3, read-out: stability in the presence of 10% human serum): 39.3% | remaining at 24 h ([3]; 10% human serum, 24 Hrs, fraction relative to 0 Hrs, mean (SD) of n = 3, read-out: stability in the presence of 10% human serum): 12.4% | Peptide detectable (percent remaining) in serum ([3]; RPMI with 10% (v/v) human serum (type AB), 37 °C, 100 µM peptide, 24-hour incubation, HPLC 280 nm, mean of n of 3): about 10% | Stability in serum (in words) ([3]; RPMI with 10% (v/v) human serum (type AB), 37 °C, 100 µM peptide, HPLC 280 nm, n of 3): not particularly stable in serum | Survival of mice at end of experiment (in words) (C. albicans [4]): about half the animals were still alive | C. albicans CFUs before versus after incubation with peptide (in words) (C. albicans [5]): no significant difference | Median survival (C. albicans AzS; C. albicans AzS infected C. elegans, peptides 1 nM, fluconazole 4 ug/ml, Fig 4C, trial 1): 12 days | Median survival (C. albicans AzS; C. albicans AzS infected C. elegans, peptides 1 nM, fluconazole 4 ug/ml, Fig 4C, trial 2): 10.5 days | Lysis of red blood cells (in words) (RBCs; 1 nM and 1 µM peptide, 6 x 10^7 RBC cells/mL in PBS, 1 h room temperature, absorbance 410 nm, n of 6, listed as 12mer): no lysis of red blood cells; also recorded: no toxicity | fractional hemolysis (Toxicity) (RBCs; 1nM, replicate 1): 0.01086 | fractional hemolysis (Toxicity) (RBCs; 1nM, replicate 2): 0.03086 | fractional hemolysis (Toxicity) (RBCs; 1nM, replicate 3): 0.01386 | fractional hemolysis (Toxicity) (RBCs; 1nM, replicate 4): 0.05786 | fractional hemolysis (Toxicity) (RBCs; 1uM, replicate 1): 0.04886 | fractional hemolysis (Toxicity) (RBCs; 1uM, replicate 2): 0.05786 | fractional hemolysis (Toxicity) (RBCs; 1uM, replicate 3): 0.03286 | fractional hemolysis (Toxicity) (RBCs; 1uM, replicate 4): 0.08286 | Invasion of the tongue epithelium (in words) (C. albicans [6]; [11]): the reduction in invasion remained dramatic | Hyphal invasion of the tongue (in words) (C. albicans [6]; 50 nM in drinking water, day 5): significant lowering of hyphal invasion | Hyphal invasion relative to fluconazole (in words) (C. albicans [6]; 100 nM and 500 nM in drinking water versus 4 µg/mL fluconazole, day 5): slightly less prevalent | Epithelial / hyphal invasion of the tongue (in words) (C. albicans [6]; mouse, in vivo, listed as 12mer): at least as effective as the full length EntV; also recorded: most reduced | Protection of C. elegans against C. albicans infection (in words) (C. albicans [1]): as effective in protecting against C. albicans infection in the worm model and inhibiting surface adhesion as full-length EntV | Median survival (C. albicans [1]; Fig 3A, trial 1): 10.5 days | Median survival (C. albicans [1]; Fig 3A, trial 2): 10 days | Median survival (C. albicans [1]; Fig 3A, trial 3): 9.5 days | Median survival (C. albicans [1]; Fig 3E, trial 1): 11 days | Median survival (C. albicans [1]; Fig 3E, trial 2): 10 days | Median survival (C. albicans [1]; Fig 3E, trial 3): 10 days | Fungal burden on the tongue (in words) (C. albicans [7]; [11]): only a slight reduction in fungal burden on the tongue | Fungal burden in the tongue (in words) (C. albicans [7]; 50 nM in drinking water, day 5): loss of efficacy in terms of fungal burden | Fungal burden in the tongue, established infection (in words) (C. albicans [7]; 100 nM in drinking water starting at day three, sacrificed on day five): significantly less fungal burden compared to both groups of untreated animals | Fungal burden in the tongue, C. albicans DNA by qPCR (in words) (C. albicans [7]; corticosteroid-suppressed mice, 100 nM in drinking water from inoculation, day 5, listed as 12mer): equally effective; also recorded: even more effective at reducing fungal burden than 4 µg/mL fluconazole | Solubility ([2]; Supplementary Table 2, printed as '10 µM +'): 10 µM + | Protection of C. elegans infected with C. neoformans (in words) [8]: protected C. neoformans infected worms from killing | Reduction of catheter fungal burden (C. albicans [9]): 1.5 logs | Inhibition of C. albicans adhesion to polystyrene (in words) (C. albicans [10]; 1 h with peptide in PBS, then artificial saliva media 90 min, crystal violet): as effective in protecting against C. albicans infection in the worm model and inhibiting surface adhesion as full-length EntV | Adjusted avg (C. albicans [10]; biological replicate 1): 0.262 | Avg Percent (C. albicans [10]; biological replicate 1): 40.07% | Adjusted avg (C. albicans [10]; biological replicate 2): 0.408 | Avg Percent (C. albicans [10]; biological replicate 2): 48.28% | Adjusted avg (C. albicans [10]; biological replicate 3): 0.161 | Avg Percent (C. albicans [10]; biological replicate 3): 13.25% | Adjusted avg (C. albicans [10]; biological replicate 4): 0.232 | Avg Percent (C. albicans [10]; biological replicate 4): 27.81%
